Data as given in publication PMC7076788, “Interactions of Destruxin A with Silkworms’ Arginine tRNA Synthetase and Lamin-C Proteins” (Toxins, 2020).
Positions count from the first letter of the chain named. pKd: −log10 of the molar value. Where a SMILES comes first, the peptide text is derived from it. [ ]: non-standard residue; d: D form. dLac(3-vinyl) = C=CC[C@@H](O)C(=O)O; NMeV = CN[C@H](C(=O)O)C(C)C; NMeA = CN[C@@H](C)C(=O)O; βAla = NCCC(=O)O

Legend:
Assay in all cases: bio-layer interferometry, immobilised protein
Type in all cases: binding
BmArgRS [1] = target: T1, BmArgRS (Bombyx mori, UniProt A0A8R1WK71, K475A)
T1 construct: gene 101737924; apparently full length (catalytic core 216-481)
T1 sequence (A0A8R1WK71 1-683 K475A): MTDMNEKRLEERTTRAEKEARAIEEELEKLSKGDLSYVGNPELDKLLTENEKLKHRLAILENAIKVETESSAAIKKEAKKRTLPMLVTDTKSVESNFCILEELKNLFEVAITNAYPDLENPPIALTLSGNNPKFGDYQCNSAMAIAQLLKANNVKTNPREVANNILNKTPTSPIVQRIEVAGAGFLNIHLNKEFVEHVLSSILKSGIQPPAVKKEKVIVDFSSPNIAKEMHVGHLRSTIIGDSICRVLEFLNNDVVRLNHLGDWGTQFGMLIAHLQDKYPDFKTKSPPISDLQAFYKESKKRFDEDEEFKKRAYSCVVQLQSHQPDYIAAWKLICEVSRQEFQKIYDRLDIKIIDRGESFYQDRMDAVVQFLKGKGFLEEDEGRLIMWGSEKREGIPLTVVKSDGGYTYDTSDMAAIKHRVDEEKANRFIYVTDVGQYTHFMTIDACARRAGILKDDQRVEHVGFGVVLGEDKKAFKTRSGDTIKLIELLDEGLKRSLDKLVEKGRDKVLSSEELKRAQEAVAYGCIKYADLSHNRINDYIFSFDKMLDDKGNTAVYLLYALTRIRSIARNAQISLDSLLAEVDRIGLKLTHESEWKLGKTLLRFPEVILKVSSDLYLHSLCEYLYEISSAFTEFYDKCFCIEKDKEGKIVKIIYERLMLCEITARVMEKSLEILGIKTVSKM

BmArgRS [2] = target: T2, BmArgRS (Bombyx mori, UniProt A0A8R1WK71, V468A)
T2 construct: gene 101737924; apparently full length (catalytic core 216-481)
T2 sequence (A0A8R1WK71 1-683 V468A): T1 sequence (A0A8R1WK71 1-683 K475A) with V468A, A475K

BmArgRS [3] = target: T3, BmArgRS (Bombyx mori, UniProt A0A8R1WK71)
T3 construct: gene 101737924; apparently full length (catalytic core 216-481)
T3 sequence (A0A8R1WK71 1-683): T1 sequence (A0A8R1WK71 1-683 K475A) with A475K
Description: bio-layer interferometry, immobilised protein on BmArgRS

C=CC[C@H]1OC(=O)CCNC(=O)[C@H](C)N(C)C(=O)[C@H](C(C)C)N(C)C(=O)[C@H]([C@@H](C)CC)NC(=O)[C@@H]2CCCN2C1=O [Destruxin A] (cyclo(I[NMeV][NMeA][βAla][dLac(3-vinyl)]P))
pKd (BmArgRS [1]): 5.24
pKd (BmArgRS [2]): 4.28
pKd (BmArgRS [3]): 4.26
